Laboratory results as given in US20080194529A1 (AUSPEX PHARMACEUTICALS, INC., priority 2007, published 2008).

Legend:
[1] = format: in vitro ADME; settings: topical or ocular, 5 microgram per mL
Experimental: Liver microsomal stability assays were conducted at 1 mg per mL liver microsome protein with an NADPH-generating system in 2% NaHCO3 (2.2 mM NADPH, 25.6 mM glucose 6-phosphate, 6 units per mL glucose 6-phosphate dehydrogenase and 3.3 mM MgCl2). Test compounds were prepared as solutions in 20% acetonitrile-water and added to the assay mixture (final assay concentration 5 microgram per mL) and incubated at 37° C. Final concentration of acetonitrile in the assay were <1%. Aliquots (50 μL) were taken out at times 0, 15, 30, 45, and 60 minutes, and diluted with ice cold acetonitrile (200 μL) to stop the reactions. Samples were centrifuged at 12000 RPM for 10 minutes to precipitate proteins. Supernatants were transferred to microcentrifuge tubes and stored for LC/MS/MS analysis of the degradation half-life of the test compounds.

[2] = cited from earlier work

| increase in the degradation half-life as compared to the non-isotopically enriched drug (udenafil) [1] | SMILES | side effects of chromatopsia, such as sensitivity to light and blurred vision, in patients taking the drug [2] [%] |
| --- | --- | --- |
| 12-15% | [2H]C([2H])(CC)c1nn(C([2H])([2H])[2H])c2c(=O)[nH]c(-c3cc(S(=O)(=O)NCCC4CCCN4C)ccc3OCCC)nc12 (stereo not drawn) [Example 4, d5-3-(1-Methyl-7-oxo-3-propyl-6,7-dihydro-1H-pyrazolo[4,3-d]pyrimidin-5-yl)-N-[2-(1-methyl-pyrrolidin-2-yl)-ethyl]-4-propoxy-benzenesulfonamide] |  |
| 12-15% | [2H]C([2H])(CC)c1nn(C)c2c(=O)[nH]c(-c3cc(S(=O)(=O)NCCC4CCCN4C)ccc3OCCC)nc12 (stereo not drawn) [Example 5, d2-3-(1-Methyl-7-oxo-3-propyl-6,7-dihydro-1H-pyrazolo[4,3-d]pyrimidin-5-yl)-N-[2-(1-methyl-pyrrolidin-2-yl)-ethyl]-4-propoxy-benzenesulfonamide] |  |
|  | CN1CC(=O)N2[C@H](c3ccc4c(c3)OCO4)c3[nH]c4ccccc4c3C[C@@H]2C1=O [tadalafil] | < 0.1 |
